Data: patent publication US10898592B2, “Compositions and methods for reducing the risk of post-imaging pancreatitis” (University Of Pittsburgh—Of The Commonwealth System Of …, priority 2015, dated 2021)

Key:
[1] = test system: calcineurin (NFAT-luciferase); experiment: NFAT-luciferase activity assay (calcineurin activation), mouse primary acinar cells; format: cell-based; settings: 30 min pre-treatment; FK506 24 μM; CsA 16 μM; BAPTA-AM 64 μM
Experimental: (§1) NFAT-luciferase activity assay. Acinar cells were infected with Ad-NFAT-luciferase following a previously described procedure^10,15,16. The construct includes a luciferase gene placed downstream of an IL-4 promoter which contains nine tandem NFAT binding sites^10. Acinar cells were incubated with the NFAT-driven luciferase adenovirus for 1.5 hr prior to stimulation. All of the stated inhibitors were added for 30 min prior to stimulation with RC. NFAT-luciferase was measured using the luciferase assay system. Briefly, cells were spun at 1,000 rpm for 5 min, washed with PBS, and lysed using reporter lysis 5× buffer (Promega #E397A, Madison, Wis.). Samples were vortexed and spun at 12,000 g for 2 min. Supernatant was plated, and luminescence was measured using a Synergy H1 plate reader (BioTek, Winooski, Vt.) and normalized to total protein.

[2] = test system: primary acinar cells; experiment: Cell necrosis assay (propidium iodide uptake), primary acinar cells; format: cell-based, mouse; settings: 6 hr incubation; U73122 5 μM; 2-APB 100 μM; BAPTA 64 μM; IKK-2 20 μM; FK506 24 μM; CsA 16 μM
Experimental: Cell necrosis assay. Acinar cells were incubated in a 48-well plate with 50 μg/ml of propidium iodide (PI) for 30 min prior to addition of RC. Fluorescence was measured at 536 nm excitation and 617 nm emission wavelengths over time a time course of up to 6 hr. Fluorescence was measured after cell lysis with 0.5% Triton-X 100 was used to normalize the results relative to total DNA.

[3] = test system: NF-κB; experiment: NF-κB-luciferase activity assay, AR42J cells; format: cell-based; settings: U73122 5 μM; 2-APB 100 μM; BAPTA 64 μM
Experimental: NF-κB-luciferase activity assay. AR42J cells were differentiated towards an acinar phenotype by administering dexamethasone (100 nM) for 48-72 hr^17. AR42J cells were infected with Ad-NF-κB luciferase 16 h prior to stimulation using a previously described method^12. Following a wash with DMEM/F12 medium, acinar cells were evenly distributed in a 48-well plate and incubated for 30 min at 37° C. They were incubated with RC at varying concentrations and times. NF-κB-luciferase was measured using a commercially available luciferase assay (Promega, Madison, Wis.). Briefly, cells were spun at 1,000 rpm for 5 min, washed with PBS, and lysed using reporter lysis 5× buffer (Promega, catalog no. E397A). Samples were vortexed and spun at 12,000×g for 2 min. The supernatant was plated, and luminescence was measured using a Synergy H1 plate reader (BioTek, Winooski, Vt.) and normalized to total […].

[4] = test system: calcineurin (NFAT-luciferase); experiment: NFAT-luciferase activity assay, human acinar cells; format: cell-based
Experimental: as §1

[5] = test system: calcineurin (NFAT-luciferase); experiment: NFAT-luciferase activity assay, AR42J cells; format: cell-based; settings: pretreatment; FK506 24 μM; CsA 16 μM; U73122 5 μM; 2-APB 100 μM; BAPTA 64 μM
Experimental: as §1

## CC(=O)OCOC(=O)CN(CC(=O)OCOC(C)=O)c1ccccc1OCCOc1ccccc1N(CC(=O)OCOC(C)=O)CC(=O)OCOC(C)=O [BAPTA, BAPTA-AM]
[1]
  effect on RC (9%)-induced rise in NFAT-luciferase: completely reduced
[2]
  effect on RC (12%)-induced acinar cell injury (PI uptake): prevented
[3]
  effect on RC-induced NF-κB-luciferase levels: reduced
[4]
  effect on RC (25%)-induced NFAT-luciferase activity: prevented
[5]
  effect on RC (6%)-induced NFAT-luciferase activity: prevented
